Assay results: ChEMBL document CHEMBL5465560, “Selectivity Literature for EUbOPEN Chemogenomic Library” (2024)

Assays:
[1] = target: Protein arginine N-methyltransferase 3 (Homo sapiens, UniProt O60678); details: at 10 µM
[2] = target: Serine/threonine-protein kinase RIO2 (Homo sapiens) (UniProt Q9BVS4); assay: Selectivity interaction (KinomeScan (DiscoverX)) EUB0001079a RIOK2; details: at 1 µM
[3] = target: cAMP-dependent protein kinase catalytic subunit beta (Homo sapiens) (UniProt P22694); assay: Selectivity interaction (KinomeScan (DiscoverX)) EUB0000666a PRKACB; details: at 10 µM
[4] = target: Serine/threonine-protein kinase NIM1 (Homo sapiens, UniProt Q8IY84); details: at 10 µM
Chain of Serine/threonine-protein kinase NIM1 (Q8IY84 whole entry): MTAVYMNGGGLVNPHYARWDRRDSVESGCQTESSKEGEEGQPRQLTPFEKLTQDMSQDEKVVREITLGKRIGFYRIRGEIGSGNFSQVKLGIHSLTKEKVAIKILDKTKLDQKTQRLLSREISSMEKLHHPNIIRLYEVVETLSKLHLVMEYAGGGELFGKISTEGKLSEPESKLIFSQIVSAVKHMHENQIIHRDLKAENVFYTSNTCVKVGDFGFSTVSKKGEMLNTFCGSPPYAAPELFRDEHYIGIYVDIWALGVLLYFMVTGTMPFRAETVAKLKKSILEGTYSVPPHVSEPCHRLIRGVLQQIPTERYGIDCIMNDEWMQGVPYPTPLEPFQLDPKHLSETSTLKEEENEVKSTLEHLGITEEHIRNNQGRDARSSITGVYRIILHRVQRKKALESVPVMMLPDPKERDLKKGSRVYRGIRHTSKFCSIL

[5] = target: Tyrosine-protein kinase ABL1 (Homo sapiens, UniProt P00519); assay: Selectivity interaction (KinomeScan (DiscoverX)) EUB0001049a ABL1; details: at 1 µM
Chain of Tyrosine-protein kinase ABL1 (P00519 whole entry): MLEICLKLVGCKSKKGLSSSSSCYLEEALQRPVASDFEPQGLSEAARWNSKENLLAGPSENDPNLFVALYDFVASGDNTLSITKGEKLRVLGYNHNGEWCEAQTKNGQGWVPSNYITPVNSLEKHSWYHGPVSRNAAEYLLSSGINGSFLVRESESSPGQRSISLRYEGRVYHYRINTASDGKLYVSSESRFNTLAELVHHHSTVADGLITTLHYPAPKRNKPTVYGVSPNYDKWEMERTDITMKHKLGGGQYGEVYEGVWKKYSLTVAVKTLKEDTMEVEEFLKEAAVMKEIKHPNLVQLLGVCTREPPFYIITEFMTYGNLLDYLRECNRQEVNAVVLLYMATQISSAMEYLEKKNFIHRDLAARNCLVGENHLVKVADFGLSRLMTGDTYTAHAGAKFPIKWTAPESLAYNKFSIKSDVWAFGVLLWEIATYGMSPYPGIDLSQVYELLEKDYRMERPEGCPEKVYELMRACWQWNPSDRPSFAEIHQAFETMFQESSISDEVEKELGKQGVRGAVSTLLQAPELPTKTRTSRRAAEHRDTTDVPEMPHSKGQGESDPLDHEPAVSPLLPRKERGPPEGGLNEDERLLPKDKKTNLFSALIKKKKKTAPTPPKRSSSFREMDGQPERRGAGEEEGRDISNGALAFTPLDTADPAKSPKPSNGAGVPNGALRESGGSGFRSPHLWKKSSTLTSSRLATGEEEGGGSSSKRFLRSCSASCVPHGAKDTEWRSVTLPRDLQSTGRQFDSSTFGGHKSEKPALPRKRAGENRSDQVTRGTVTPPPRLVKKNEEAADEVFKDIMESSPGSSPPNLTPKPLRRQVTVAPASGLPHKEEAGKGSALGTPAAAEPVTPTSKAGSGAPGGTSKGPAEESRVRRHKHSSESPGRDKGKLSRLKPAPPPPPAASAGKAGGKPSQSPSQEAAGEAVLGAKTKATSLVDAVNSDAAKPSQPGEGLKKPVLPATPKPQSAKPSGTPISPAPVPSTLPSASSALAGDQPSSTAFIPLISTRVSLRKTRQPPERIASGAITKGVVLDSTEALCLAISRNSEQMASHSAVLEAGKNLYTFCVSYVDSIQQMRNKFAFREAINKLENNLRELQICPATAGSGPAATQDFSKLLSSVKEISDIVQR

[6] = target: RAC-alpha serine/threonine-protein kinase (Homo sapiens, UniProt P31749); assay: Selectivity interaction (ActivX KiNativ screen (ex vivo kinase selectivity in human PBMCs)) EUB0001619a AKT1; type: cell-based; details: PBMC, at 1 µM
Chain of RAC-alpha serine/threonine-protein kinase (P31749 whole entry): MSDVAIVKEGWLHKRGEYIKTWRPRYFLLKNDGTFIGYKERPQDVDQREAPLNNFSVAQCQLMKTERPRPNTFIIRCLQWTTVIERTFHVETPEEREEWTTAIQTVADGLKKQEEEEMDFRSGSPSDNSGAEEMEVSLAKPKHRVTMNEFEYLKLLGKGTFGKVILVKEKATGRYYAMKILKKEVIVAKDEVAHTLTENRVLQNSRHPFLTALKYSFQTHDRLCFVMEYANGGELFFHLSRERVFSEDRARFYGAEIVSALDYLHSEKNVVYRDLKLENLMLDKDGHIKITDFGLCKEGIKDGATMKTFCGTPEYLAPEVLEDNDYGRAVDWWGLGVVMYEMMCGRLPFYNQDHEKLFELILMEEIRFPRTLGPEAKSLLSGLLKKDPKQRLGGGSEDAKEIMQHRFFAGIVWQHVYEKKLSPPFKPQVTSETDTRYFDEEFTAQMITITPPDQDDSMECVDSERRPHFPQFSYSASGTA

[7] = target: Diacylglycerol kinase beta (Homo sapiens) (UniProt Q9Y6T7); assay: Selectivity interaction (Kinase panel (literature)) EUB0001199aCl DGKB; details: at 1 µM
[8] = target: Mitogen-activated protein kinase 9 (Homo sapiens, UniProt P45984); assay: Selectivity interaction (Kinase panel (literature)) EUB0001199aCl MAPK9; details: at 1 µM
Chain of Mitogen-activated protein kinase 9 (P45984 whole entry, looked up): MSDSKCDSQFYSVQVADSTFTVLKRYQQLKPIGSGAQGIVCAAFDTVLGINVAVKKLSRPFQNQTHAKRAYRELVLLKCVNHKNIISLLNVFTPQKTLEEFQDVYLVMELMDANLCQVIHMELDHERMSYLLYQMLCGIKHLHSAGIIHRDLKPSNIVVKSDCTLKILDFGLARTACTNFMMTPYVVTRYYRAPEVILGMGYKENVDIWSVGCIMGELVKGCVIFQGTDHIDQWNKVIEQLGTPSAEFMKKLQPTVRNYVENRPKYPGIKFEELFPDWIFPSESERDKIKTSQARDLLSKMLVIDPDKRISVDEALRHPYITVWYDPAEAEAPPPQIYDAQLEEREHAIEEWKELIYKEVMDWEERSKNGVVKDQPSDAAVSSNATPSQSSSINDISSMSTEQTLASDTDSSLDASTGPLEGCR

[9] = target: Bone morphogenetic protein receptor type-1A (Homo sapiens, UniProt P36894); assay: Selectivity interaction (KinomeScan (DiscoverX)) EUB0000618a BMPR1A; details: at 10 µM
Chain of Bone morphogenetic protein receptor type-1A (P36894 whole entry): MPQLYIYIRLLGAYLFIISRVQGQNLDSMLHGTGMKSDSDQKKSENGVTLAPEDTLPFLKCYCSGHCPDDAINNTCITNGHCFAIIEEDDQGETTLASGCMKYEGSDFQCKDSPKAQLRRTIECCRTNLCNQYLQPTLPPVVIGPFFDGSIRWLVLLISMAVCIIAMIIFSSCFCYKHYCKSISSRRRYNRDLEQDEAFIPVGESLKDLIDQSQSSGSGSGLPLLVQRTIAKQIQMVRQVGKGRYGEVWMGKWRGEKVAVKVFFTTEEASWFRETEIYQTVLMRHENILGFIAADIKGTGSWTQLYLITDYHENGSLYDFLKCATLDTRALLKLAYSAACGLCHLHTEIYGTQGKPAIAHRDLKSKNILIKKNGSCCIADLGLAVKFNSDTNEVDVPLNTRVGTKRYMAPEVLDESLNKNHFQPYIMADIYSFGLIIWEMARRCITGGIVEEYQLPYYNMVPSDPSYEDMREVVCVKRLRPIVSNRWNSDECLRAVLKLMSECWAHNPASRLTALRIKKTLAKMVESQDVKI

[10] = target: Dual specificity protein kinase CLK3 (Homo sapiens, UniProt P49761); assay: Selectivity interaction (KinomeScan (DiscoverX)) EUB0000655a CLK3; details: at 10 µM
Chain of Dual specificity protein kinase CLK3 (P49761 whole entry, looked up): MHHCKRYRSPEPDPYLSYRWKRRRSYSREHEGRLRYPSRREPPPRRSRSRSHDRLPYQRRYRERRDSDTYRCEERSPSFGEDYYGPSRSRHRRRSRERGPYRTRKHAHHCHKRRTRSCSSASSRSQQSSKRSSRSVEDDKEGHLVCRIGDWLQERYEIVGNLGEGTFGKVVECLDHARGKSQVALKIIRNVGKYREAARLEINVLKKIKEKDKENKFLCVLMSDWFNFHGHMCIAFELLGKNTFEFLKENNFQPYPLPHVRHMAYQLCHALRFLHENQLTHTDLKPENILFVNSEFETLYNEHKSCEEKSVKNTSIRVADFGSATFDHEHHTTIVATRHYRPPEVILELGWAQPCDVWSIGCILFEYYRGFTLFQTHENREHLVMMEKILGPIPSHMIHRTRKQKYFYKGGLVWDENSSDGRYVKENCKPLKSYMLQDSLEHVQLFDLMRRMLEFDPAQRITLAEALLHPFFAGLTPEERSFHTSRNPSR

[11] = target: T1, Tyrosine-protein kinase JAK3 (Homo sapiens) (UniProt P52333); assay: Selectivity interaction (KinomeScan (DiscoverX)) EUB0000655a JAK3; details: at 10 µM
T1 sequence (whole entry): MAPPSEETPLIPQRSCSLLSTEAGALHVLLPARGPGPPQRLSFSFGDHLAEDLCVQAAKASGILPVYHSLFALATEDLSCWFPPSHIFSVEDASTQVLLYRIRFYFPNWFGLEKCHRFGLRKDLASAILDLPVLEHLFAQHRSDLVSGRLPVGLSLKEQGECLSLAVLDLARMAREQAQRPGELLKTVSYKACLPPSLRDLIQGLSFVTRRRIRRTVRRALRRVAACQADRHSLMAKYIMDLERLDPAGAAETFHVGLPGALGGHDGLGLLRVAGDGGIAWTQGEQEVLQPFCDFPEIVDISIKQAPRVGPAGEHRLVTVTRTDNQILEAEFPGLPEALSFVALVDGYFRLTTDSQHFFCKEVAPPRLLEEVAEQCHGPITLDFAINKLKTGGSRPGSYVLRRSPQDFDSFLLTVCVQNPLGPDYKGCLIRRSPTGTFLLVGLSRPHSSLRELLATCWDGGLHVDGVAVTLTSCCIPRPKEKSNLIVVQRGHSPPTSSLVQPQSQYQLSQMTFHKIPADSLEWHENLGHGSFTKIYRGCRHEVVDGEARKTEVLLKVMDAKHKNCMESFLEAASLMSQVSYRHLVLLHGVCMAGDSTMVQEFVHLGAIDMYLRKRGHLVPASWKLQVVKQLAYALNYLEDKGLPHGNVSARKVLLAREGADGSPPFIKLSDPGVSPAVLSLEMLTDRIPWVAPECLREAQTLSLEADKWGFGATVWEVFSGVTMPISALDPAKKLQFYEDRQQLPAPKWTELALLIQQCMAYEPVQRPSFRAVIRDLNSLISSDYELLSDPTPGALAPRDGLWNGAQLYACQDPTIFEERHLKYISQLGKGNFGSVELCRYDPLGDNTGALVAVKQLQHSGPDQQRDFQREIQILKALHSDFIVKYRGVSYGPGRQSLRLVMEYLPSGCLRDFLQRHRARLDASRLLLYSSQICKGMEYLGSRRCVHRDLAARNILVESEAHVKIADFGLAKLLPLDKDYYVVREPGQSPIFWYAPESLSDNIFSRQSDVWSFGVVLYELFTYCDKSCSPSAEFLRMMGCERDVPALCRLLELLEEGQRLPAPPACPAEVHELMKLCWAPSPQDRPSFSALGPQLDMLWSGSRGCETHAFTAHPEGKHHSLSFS

[12] = target: T2, Serine/threonine-protein kinase STK11 (Homo sapiens) (UniProt Q15831); assay: Selectivity interaction (KinomeScan (DiscoverX)) EUB0000655a STK11; details: at 10 µM
T2 sequence (whole entry): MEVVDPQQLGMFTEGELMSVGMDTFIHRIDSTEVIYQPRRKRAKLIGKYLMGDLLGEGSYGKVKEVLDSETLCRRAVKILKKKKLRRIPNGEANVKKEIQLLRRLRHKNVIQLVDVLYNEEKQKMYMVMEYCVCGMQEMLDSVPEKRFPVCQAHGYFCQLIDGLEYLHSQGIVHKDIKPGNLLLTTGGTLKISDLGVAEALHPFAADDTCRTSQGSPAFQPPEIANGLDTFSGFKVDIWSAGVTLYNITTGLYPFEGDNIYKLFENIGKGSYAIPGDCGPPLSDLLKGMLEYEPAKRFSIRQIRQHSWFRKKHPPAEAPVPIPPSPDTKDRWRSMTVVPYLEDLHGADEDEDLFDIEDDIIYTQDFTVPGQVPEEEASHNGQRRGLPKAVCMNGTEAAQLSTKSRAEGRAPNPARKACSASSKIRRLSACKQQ

[13] = target: Phosphatidylinositol 4-phosphate 3-kinase C2 domain-containing subunit beta (Homo sapiens) (UniProt O00750); assay: Selectivity interaction (KinomeScan (DiscoverX)) EUB0000092b PIK3C2B; details: at 10 µM

Chain of Protein arginine N-methyltransferase 3 (O60678 2-531 limits assumed): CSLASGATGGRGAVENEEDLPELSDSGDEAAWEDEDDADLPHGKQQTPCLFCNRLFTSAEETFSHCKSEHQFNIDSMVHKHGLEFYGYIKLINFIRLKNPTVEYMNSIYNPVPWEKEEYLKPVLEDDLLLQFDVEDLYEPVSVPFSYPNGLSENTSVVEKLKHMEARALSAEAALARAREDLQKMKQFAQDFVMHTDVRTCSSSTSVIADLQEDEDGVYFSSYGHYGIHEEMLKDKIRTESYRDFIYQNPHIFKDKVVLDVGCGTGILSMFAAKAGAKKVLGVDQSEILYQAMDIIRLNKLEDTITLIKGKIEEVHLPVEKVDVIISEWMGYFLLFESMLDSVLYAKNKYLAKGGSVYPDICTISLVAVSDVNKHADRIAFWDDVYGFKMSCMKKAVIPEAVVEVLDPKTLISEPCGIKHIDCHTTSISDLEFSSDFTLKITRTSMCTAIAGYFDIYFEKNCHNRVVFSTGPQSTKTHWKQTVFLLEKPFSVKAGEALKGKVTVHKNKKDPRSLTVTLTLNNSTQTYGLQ
Chain of Serine/threonine-protein kinase RIO2 (Homo sapiens) (Q9BVS4 whole entry, looked up): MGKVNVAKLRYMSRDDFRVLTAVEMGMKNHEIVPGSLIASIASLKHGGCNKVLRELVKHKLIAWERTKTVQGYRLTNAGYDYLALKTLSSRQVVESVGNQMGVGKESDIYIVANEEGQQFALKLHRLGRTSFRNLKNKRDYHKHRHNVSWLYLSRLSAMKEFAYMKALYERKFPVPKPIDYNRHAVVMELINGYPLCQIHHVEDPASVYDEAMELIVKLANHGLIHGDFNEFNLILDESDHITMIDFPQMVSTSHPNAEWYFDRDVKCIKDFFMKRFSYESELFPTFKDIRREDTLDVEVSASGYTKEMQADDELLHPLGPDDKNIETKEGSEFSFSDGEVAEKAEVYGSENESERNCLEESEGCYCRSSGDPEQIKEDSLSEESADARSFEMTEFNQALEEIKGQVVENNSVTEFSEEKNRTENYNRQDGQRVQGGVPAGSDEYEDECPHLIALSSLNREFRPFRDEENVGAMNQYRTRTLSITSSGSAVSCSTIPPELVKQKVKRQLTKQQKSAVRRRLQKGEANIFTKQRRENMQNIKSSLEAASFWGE

CNCCN1CCC(c2cc(CN(C)C(=O)c3cccc(Oc4ccccc4)c3)ccn2)CC1
% activity [1]: > 90%

Nc1cnc(N2CCc3cc(S(=O)(=O)Nc4c(F)cc(Cl)cc4F)cc(N4CCCC4=O)c32)nc1 [TP-020n]
% of control [2]: 89%

O=C(NOC[C@H](O)CO)c1ccc(F)c(F)c1Nc1ccc(I)cc1F
% of control [3]: 98%

Cc1cc([C@@H](C)Nc2ccccc2C(=O)O)c2nc(N3CCOCC3)cc(=O)n2c1 [AZD-6482]
% of control [4]: 100%

COc1cc(Nc2nc(C)cc(-c3cnn4nc(OC)ccc34)n2)cc(C(F)(F)F)c1
% of control [5]: 84%

N#Cc1cccc(-c2c[nH]c3ncnc(N4CCOCC4)c23)c1
% of inhibition [6]: -6%

CN1Cc2nccc(-c3cn(C)nc3-c3ccc(F)cc3)c2C1=O
% of inhibition [7]: -9% | % of inhibition [8]: 18%

O[C@H]1CC[C@H](Nc2ncc3nc(Nc4c(F)cc(F)cc4F)n([C@H]4CCOC4)c3n2)CC1
% of control [9]: 100%

CN(C)CCOc1ccc(-c2nc(-c3ccncc3)c(-c3ccc4c(c3)CC/C4=N\O)[nH]2)cc1
% of control [10]: 98% | % of control [11]: 93% | % of control [12]: 88%

CCC(=O)N1CCN(c2ccc(-n3c(=O)ccc4cnc5ccc(-c6cnc7ccccc7c6)cc5c43)cc2C(F)(F)F)CC1
% of control [13]: 25%
